Assay results taken from patent US20220401564A1 (DANA-FARBER CANCER INSTITUTE, INC., priority 2019, published 2022).
“Also recorded” adds a separate entry of the source.

Molecular target: T1, HDAC8 (Homo sapiens, UniProt Q9BY41)
T1 sequence (Q9BY41 1-377): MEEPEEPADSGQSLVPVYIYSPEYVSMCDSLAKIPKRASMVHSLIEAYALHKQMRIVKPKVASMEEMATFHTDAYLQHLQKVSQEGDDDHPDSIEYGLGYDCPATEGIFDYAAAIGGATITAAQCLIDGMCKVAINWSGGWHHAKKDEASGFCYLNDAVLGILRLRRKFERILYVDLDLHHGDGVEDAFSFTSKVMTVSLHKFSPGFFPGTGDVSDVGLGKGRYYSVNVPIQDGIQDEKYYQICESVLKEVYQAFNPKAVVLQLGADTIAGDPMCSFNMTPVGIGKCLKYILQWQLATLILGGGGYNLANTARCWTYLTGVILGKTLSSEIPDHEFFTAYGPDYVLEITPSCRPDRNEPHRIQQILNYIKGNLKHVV
Assay: Change in cellular protein abundance (TMT proteomics) in Kelly cells
Format: cell-based
Parameters: relative change in relative protein abundance with treatment of Kelly cells; endogenous in cells; host or cells: Kelly cells
Conditions: FIG. 3A

In the case of `Cc1ncsc1-c1ccc(CNC(=O)[C@@H]2C[C@@H](O)CN2C(=O)[C@@H](NC(=O)C2(F)CC2)C(C)(C)C)c(OCCCCCN(CCc2c[nH]c3ccccc23)Cc2ccc(/C=C/C(=O)NO)cc2)c1` [Compound 7, (2S,4R)—N-(2-((5-((2-(1H-indol-3-yl)ethyl)(4-((E)-3-(hydroxyamino)-3-oxoprop-1-en-1-yl)benzyl)amino)pentyl)oxy)-4-(4-methylthiazol-5-yl)benzyl)-1-((S)-2-(1-fluorocyclopropane-1-carboxamido)-3,3-dimethylbutanoyl)-4-hydroxypyrrolidine-2-carboxamide], the “HDAC8 protein levels, relative protein abundance compared to DMSO control” value is reported as “promote degradation; also recorded: significant and selective reduction”.
